# Reference: publication PMC8653295 (Chemistry (Weinheim an Der Bergstrasse, Germany), 2021)
# “And” between values parts separate entries of the source, which are not always exact repeats. Equal values may be shown once.
# Legend:
# SARS‐CoV PL^pro = SARS‐CoV PL^pro (Severe acute respiratory syndrome coronavirus, UniProt P0C6X7); experiment: biochemical; assay type: biochemical; conditions: for inhibition of SARS-CoV PLpro: 10 µM
# [1] = target: interaction of the RBD of the SARS‐CoV‐2 S protein with the ACE2 receptor (Severe acute respiratory syndrome coronavirus 2, UniProt P0DTC2); assay type: binding; conditions: for inhibition of the S/ACE2 interaction: 20 µM
# SARS‐CoV‐2 PL^pro = SARS‐CoV‐2 PL^pro (Severe acute respiratory syndrome coronavirus 2, UniProt P0DTD1); experiment: biochemical; assay type: biochemical; conditions: for inhibition of SARS-CoV-2 PLpro: 1 µM
SMILES,inhibition of SARS-CoV PLpro (SARS‐CoV PL^pro),inhibition of the S/ACE2 interaction [1] [%],inhibition of SARS-CoV-2 PLpro (SARS‐CoV‐2 PL^pro),other results
CCn1[c]([Au-][S]C(=S)N2CCC(C(=O)NC3C(O)OC(CO)C(O)C3O)CC2)[n+](CC)c2ccccc21 (mixture of isomers) [Au‐35],85%,0,58%,IC50 SARS‐CoV PL^pro (SARS‐CoV PL^pro): Submicromolar; IC50 (SARS‐CoV‐2 PL^pro): 410 ± 140 nM; IC50 SARS‐CoV‐2 PL^pro (SARS‐CoV‐2 PL^pro): Submicromolar
O=C(NC1C(O)OC(CO)C(O)C1O)C1CCN(C(=S)[S][Au][PH](c2ccccc2)(c2ccccc2)c2ccccc2)CC1 (mixture of isomers) [Au‐36],79%,0,74%,IC50 (SARS‐CoV PL^pro): 330 ± 160 nM; IC50 SARS‐CoV PL^pro (SARS‐CoV PL^pro): Submicromolar; IC50 (SARS‐CoV‐2 PL^pro): 140 ± 90 nM; IC50 SARS‐CoV‐2 PL^pro (SARS‐CoV‐2 PL^pro): Submicromolar
"O=[N+]([O-])[O-].[Ag+] [Ag‐1, silver nitrate, reference compound]",100%,6,72%,activity against SARS‐CoV PL^pro (in words) (SARS‐CoV PL^pro): completely inhibited; IC50 (SARS‐CoV‐2 PL^pro): 450 ± 210 nM
"CC(=O)OC[C@H]1O[C@@H]([S-])[C@H](OC(C)=O)[C@@H](OC(C)=O)[C@@H]1OC(C)=O.CCP(CC)CC.[Au+] [Au‐1, auranofin, reference compound]",58% and > 50%,20,51% and > 50%,–
"CCP(CC)CC.[Au+].[Cl-] [Au‐3, (triethylphosphine)AuCl, reference compound]",95% and > 50%,24,55% and > 50%,IC50 (SARS‐CoV PL^pro): 1200 ± 440 nM; IC50 (SARS‐CoV‐2 PL^pro): 1100 ± 120 nM
"[Cl][Au].c1ccc(P(c2ccccc2)c2ccccc2)cc1 [Au‐4, (triphenylphosphine)AuCl, reference compound]",50% and > 50%,19,78% and > 50%,–
"[Au+3].[Cl-].[Cl-].[Cl-].[Cl-].[H+] [Au‐5, chloroauric acid, reference compound]",89% and > 50%,45,72% and > 50%,–
COc1ccc(C#[C][Au-][c]2n(C)c3ccccc3[n+]2C)cc1 [Au‐6],–,16,–,–
Cn1cc(-c2ccccc2)n(C)[c]1=[Au][Cl] [Au‐14],51%,17,23%,–
CC(C)n1cc(-c2ccccc2)n(C(C)C)[c]1=[Au][Cl] [Au‐16],57%,10,41%,–
[Cl][Au-][c]1n(Cc2ccccc2)cc(-c2ccccc2)[n+]1Cc1ccccc1 [Au‐17],-3%,9,13%,activity against SARS‐CoV PL^pro (in words) (SARS‐CoV PL^pro): inactive; activity against SARS‐CoV‐2 PL^pro (in words) (SARS‐CoV‐2 PL^pro): inactive
CC[n+]1[c-]n(CC2(c3ccc(Cl)cc3Cl)OCC(COc3ccc(N4CCN(C(C)=O)CC4)cc3)O2)cc1.[Au+].[Cl-] (centres unmarked) [Au‐19],94% and > 80%,16,2%,–
Cn1[c]([Au-][c]2n(C)c3ccccc3[n+]2C)[n+](C)c2ccccc21.[I-] [Au‐21],11%,22,10%,–
CC(C)n1[c]([Au-][c]2n(C(C)C)c3ccccc3[n+]2C(C)C)[n+](C(C)C)c2ccccc21.[Br-] [Au‐22],39%,23,7%,–
CCn1cc(-c2ccccc2)[n+](CC)[c]1[Au-][c]1n(CC)cc(-c2ccccc2)[n+]1CC.[I-] [Au‐23],25%,23,-10%,–
Cn1cc(-c2ccccc2)[n+](C)[c]1[Au-][c]1n(C)cc(-c2ccccc2)[n+]1C.[I-] [Au‐24],12%,18,-17%,–
CC(C)n1cc(-c2ccccc2)[n+](C(C)C)[c]1[Au-][c]1n(C(C)C)c(-c2ccccc2)c[n+]1C(C)C.[I-] [Au‐29],24%,8,4%,–

SMILES,inhibition of SARS-CoV PLpro (SARS‐CoV PL^pro),inhibition of the S/ACE2 interaction [1] [%],inhibition of SARS-CoV-2 PLpro (SARS‐CoV‐2 PL^pro),other results
"CCN(CC)C(=S)SSC(=S)N(CC)CC [DS, disulfiram, reference compound]",–,–,–,inhibition at 10 µM (SARS‐CoV PL^pro; read-out: inhibition of SARS-CoV PLpro): 87%; inhibition at 1 µM (SARS‐CoV‐2 PL^pro; read-out: inhibition of SARS-CoV-2 PLpro): 73%
Cc1cn(C/C=C/[c-]2cccc2)c(=O)[nH]c1=O.Cc1cn(C/C=C/[c-]2cccc2)c(=O)[nH]c1=O.[Fe+2] [Fe‐12],-4%,28,-8%,–
"C[CH2][Hg][S]c1ccccc1C(=O)[O-].[Na+] [Hg‐1, thiomersal, reference compound]",-63%,7,9%,–
C1=CCCC=CCC1.CCn1[c-][n+](CC)c(-c2ccccc2)c1.[Cl-].[Rh+] [Rh‐1],67%,0,-4%,–
C1=CCCC=CCC1.CCn1[c-][n+](CC)c(-c2ccccc2)c1.[Br-].[Rh+] [Rh‐2],67%,1,17%,–
C1=CCCC=CCC1.CCn1[c-][n+](CC)c(-c2ccccc2)c1.[I-].[Rh+] [Rh‐3],63%,0,15%,–
C1=CCCC=CCC1.CCn1[c-][n+](CC)c(-c2ccc(F)cc2)c1.[Cl-].[Rh+] [Rh‐4],72%,6,17%,–
C1=CCCC=CCC1.CCn1[c-][n+](CC)c(-c2ccc(F)cc2)c1.[Br-].[Rh+] [Rh‐5],71%,5,19%,–
C1=CCCC=CCC1.CCn1[c-][n+](CC)c(-c2ccc(F)cc2)c1.[I-].[Rh+] [Rh‐6],70%,22,19%,–
C1=CCCC=CCC1.Cn1[c-][n+](C)c(-c2ccccc2)c1.[Cl-].[Rh+] [Rh‐8],93%,12,35%,–
C1=CCCC=CCC1.Cn1[c-][n+](C)c(-c2ccccc2)c1.[Br-].[Rh+] [Rh‐9],94%,17,50%,IC50 (SARS‐CoV PL^pro): 6700 ± 2400 nM; IC50 SARS‐CoV PL^pro (SARS‐CoV PL^pro): low micromolar range; IC50 (SARS‐CoV‐2 PL^pro): 2200 ± 1000 nM; IC50 SARS‐CoV‐2 PL^pro (SARS‐CoV‐2 PL^pro): low micromolar range
C1=CCCC=CCC1.Cn1[c-][n+](C)c(-c2ccc(F)cc2)c1.[Cl-].[Rh+] [Rh‐10],90%,14,45%,–
C1=CCCC=CCC1.Cn1[c-][n+](C)c(-c2ccc(F)cc2)c1.[Br-].[Rh+] [Rh‐11],91%,14,48%,–
Cc1ccc(C(C)C)cc1.Cc1ccc2c(c1)[n+](Cc1ccccc1)[c-]n2Cc1ccccc1.[Br-].[Br-].[Ru+2] [Ru‐2],20%,0,5%,–
Cc1ccc(C(C)C)cc1.[Cl-].[Cl-].[Ru+2].[c-]1n(Cc2ccccc2)cc[n+]1Cc1ccccc1 [Ru‐9],12%,2,10%,–
Cc1cn(CC=C[c-]2cccc2)c(=O)[nH]c1=O.[Ru+2].c1cc[cH-]c1 [Ru‐17],3%,26,-17%,–
"[Cl][Ti]([Cl])([Cl])[Cl] [Ti‐2, titanium(IV) tetrachloride, reference compound]",-7%,0,-3%,activity against SARS‐CoV PL^pro (in words) (SARS‐CoV PL^pro): inactive; activity against the S/ACE2 interaction (in words) [1]: inactive; activity against SARS‐CoV‐2 PL^pro (in words) (SARS‐CoV‐2 PL^pro): inactive
